Source: the supplement of paper PMC10331698
± gives the standard deviation of the averaged measurements.

Columns and labels:
Test in all cases: level (log10 ratio to DMSO vehicle control); higher = higher biomarker level / cell amount than vehicle control
Details in all cases: in DMSO
[1] = compound: C=CC(=O)OCC(F)(F)C(F)(F)C(F)(F)C(F)(F)C(F)(F)C(F)(F)C(F)(F)F [1H,1H-Perfluorooctyl acrylate]
Experimental: (§1)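 BioMAP Diversity Plus panel of 12 human primary cell co-culture systems (3C, 4H, LPS, SAg, BT, BF4T, BE3C, CASM3C, HDF3CGF, KF3CT, MyoF, Mphg). Compounds were added 1 h before stimulation and left for 24 h (MyoF 48 h; BT 72 h for soluble read-outs or 6 d for IgG). Biomarkers were read by ELISA, cytotoxicity by SRB, PBMC viability and proliferation by Alamar Blue. Each well value was divided by the mean of 8 DMSO control wells on the same plate and log10 transformed; duplicate blinded samples were tested at 4 concentrations.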

[2] = compound: C=CC(F)(F)C(F)(F)C(F)(F)C(F)(F)C(F)(F)C(F)(F)C(F)(F)C(F)(F)C=C [1,8-Divinylperfluorooctane]
Experimental: as §1

[3] = compound: COC(=O)CCC(F)(F)C(F)(F)C(F)(F)C(F)(F)F [Methyl 2H,2H,3H,3H-perfluoroheptanoate]
Experimental: as §1

[4] = compound: FC(F)(F)C(F)(F)C(F)(F)C(F)(F)C(F)(F)C(F)(F)C(F)(F)C(F)(F)CCS [2-(Perfluorooctyl)ethanthiol]
Experimental: as §1

[5] = compound: O=C(O)C(F)(F)C(F)(F)OC(F)(F)F [Perfluoro-3-methoxypropanoic acid]
Experimental: as §1

[6] = compound: O=S(=O)(O)C(F)(F)C(F)(F)C(F)(F)C(F)(F)C(F)(F)C(F)(F)F [Perfluorohexanesulfonic acid]
Experimental: as §1

[7] = compound: OCC(F)(F)OC(F)(F)C(F)(F)OC(F)(F)CO [1H,1H,8H,8H-Perfluoro-3,6-dioxaoctane-1,8-diol]
Experimental: as §1

| Test System | level (log10) ([1]; 6700 nM) | level (log10) ([1]; 20000 nM) | level (log10) ([1]; 60000 nM) | level (log10) ([2]; 6700 nM) | level (log10) ([2]; 20000 nM) | level (log10) ([3]; 6700 nM) | level (log10) ([3]; 20000 nM) | level (log10) ([3]; 60000 nM) | level (log10) ([4]; 6700 nM) | level (log10) ([4]; 20000 nM) | level (log10) ([5]; 6700 nM) | level (log10) ([5]; 20000 nM) | level (log10) ([5]; 60000 nM) | level (log10) ([6]; 6700 nM) | level (log10) ([6]; 20000 nM) | level (log10) ([6]; 60000 nM) | level (log10) ([7]; 6700 nM) | level (log10) ([7]; 20000 nM) | level (log10) ([7]; 60000 nM) |
| --- | --- | --- | --- | --- | --- | --- | --- | --- | --- | --- | --- | --- | --- | --- | --- | --- | --- | --- | --- |
| BF4T:CD90 | -0.013 ± 0.014 | -0.003 ± 0.0028 | -0.004 ± 0.031 | 0.0025 ± 0.0064 | -0.002 ± 0.0071 | -0.009 ± 0.011 | -0.0045 ± 0.0064 | -0.032 ± 0.013 | -0.003 ± 0.0028 | -0.0065 ± 0.005 | -0.012 ± 0.021 | -0.0165 ± 0.013 | -0.0095 ± 0.0035 | -0.001 ± 0.014 | -0.0115 ± 0.0078 | -0.0305 ± 0.0064 | -0.008 ± 0.027 | -0.008 ± 0.011 | -0.0015 ± 0.011 |
| BT:sTNF-alpha | -0.029 ± 0.027 | -0.0585 ± 0.044 | -0.19 ± 0.043 | 0.016 ± 0.13 | 0.102 ± 0.081 | 0.0125 ± 0.042 | -0.105 ± 0.055 | 0.0165 ± 0.12 | 0.16 ± 0.015 | 0.065 ± 0.035 | 0.055 ± 0.035 | -0.0805 ± 0.084 | 0.0205 ± 0.17 | 0.024 ± 0.13 | -0.011 ± 0.034 | -0.0495 ± 0.044 | 0.17 ± 0.053 | 0.023 ± 0.19 | -0.036 ± 0.1 |
| 4H:CCL2/MCP-1 | -0.0145 ± 0.00071 | -0.015 ± 0.0028 | 0.0165 ± 0.026 | -0.0315 ± 0.005 | 0.013 ± 0.035 | -0.048 ± 0.033 | -0.0435 ± 0.025 | 0.0125 ± 0.023 | -0.02 ± 0.017 | 0.0395 ± 0.035 | -0.0045 ± 0.039 | -0.0095 ± 0.0092 | 0.003 | -0.0205 ± 0.044 | -0.049 ± 0.031 | -0.0195 ± 0.054 | -0.037 ± 0.041 | -0.03 ± 0.013 | 0.008 ± 0.055 |
| BE3C:IL-1alpha | -0.006 ± 0.018 | -0.0095 ± 0.0035 | -0.0105 ± 0.019 | 0.001 ± 0.02 | 0.026 ± 0.0057 | 0.014 ± 0.023 | -0.002 ± 0.013 | 0.025 ± 0.047 | -0.038 ± 0.0014 | -0.017 ± 0.016 | 0.0105 ± 0.015 | 0.0235 ± 0.005 | 0.0355 ± 0.026 | 0.0145 ± 0.042 | 0.02 ± 0.018 | 0.0545 ± 0.0021 | 0.0105 ± 0.032 | 0.0055 ± 0.016 | 0.003 ± 0.0014 |
| BE3C:CXCL8/IL-8 | 0.0375 ± 0.012 | 0.066 | 0.071 ± 0.042 | 0.0025 ± 0.021 | 0.01 ± 0.02 | 0.032 ± 0.044 | 0.002 ± 0.057 | 0.0295 ± 0.053 | 0.04 ± 0.073 | 0.0135 ± 0.093 | -0.0445 ± 0.0064 | -0.031 ± 0.0028 | -0.007 ± 0.03 | 0.017 ± 0.0071 | 0.0175 ± 0.023 | -0.032 ± 0.044 | 0.0075 ± 0.005 | 0.001 ± 0.041 | -0.012 ± 0.045 |
| BE3C:CXCL10/IP-10 | 0.0315 ± 0.015 | 0.0195 ± 0.005 | 0.0235 ± 0.023 | 0.0075 ± 0.0021 | 0 ± 0.017 | -0.001 ± 0.013 | -0.004 ± 0.0057 | -0.006 ± 0.0099 | 0.0405 ± 0.05 | 0.016 ± 0.058 | 0.0025 ± 0.005 | -0.0095 ± 0.0035 | 0.0025 ± 0.011 | -0.0035 ± 0.00071 | -0.01 ± 0.0071 | -0.0405 ± 0.016 | 0.004 ± 0.02 | 0.01 ± 0.0071 | 0.0105 ± 0.016 |
